Read-outs that look alike come from different tables or passages of the source.
System: Ctenocephalides felis
Description: b) Ctenocephalides felis Adulticide Assay: C. felis Single Dose Screen
Mortality of fleas was the primary endpoint in the assay. Fleas were considered dead if they didn't move or were on their sides and unable to walk or right themselves. […] The concentration chosen (1.26 μg/cm^2) was higher than that known to kill 90% of cat fleas (LC90) using the reference compound, permethrin.
The test species was the cat flea (Ctenocephalides felis). The strain used was obtained from external suppliers as pupae and held in the laboratory under testing conditions until the adults had emerged. Fifteen (15) fleas were used in a minimum of four replicates against a single concentration level (approximately 60 fleas). The insects were selected to be in the adult life stage, aged between 3 and 7 days post emergence.
The compounds to be tested were supplied as solids and were prepared in acetone as described below prior to testing. Samples were stored in a refrigerator (5±1° C.) unless otherwise specified.
During the mortality testing, the temperature was maintained at 25±1° C. Humidity was maintained at 75±5%. The base (area=159 mm^2) of a 100 mL glass Erlenmeyer (conical) flask provided the treatment surface. Flasks were pretreated with Coatasil™ glass treatment to maximise bio-availability of test compounds by preventing them from binding to glass the surface. The base of the 100 mL Erlenmeyer flask was treated with 0.5 mL of test sample in acetone and gently swirled. This volume was sufficient to cover the base of the flask. Flasks were left to dry for 24 hours before flea exposure.
Adult cat fleas were placed into a sorting chamber, which allowed fleas to jump into the Erlenmeyer flasks. Fifteen (15) adult cat fleas were collected in each flask. The top of the flasks were then covered in Parafilm™ and small holes were made to allow gas exchange. A 0.5 mL volume of acetone as a solvent control was applied to the base of an Erlenmeyer flask and the testing proceeded in the same manner described above. Cat fleas in the treatment containers were held under testing conditions for 8, 24 and/or 48 hours. Mortality was recorded at 8, 24, 8 and 24, or 24 and 48 hours Pooled 8, 24, 8 and 24, and 24 and 48 hour mortality data were converted to percentages and are summarized by Table 21, below.

Compound: Cn1nccc1-c1cc(Cl)ccc1NS(=O)(=O)C(F)(F)F (single isomer, unassigned) [Compound 93, N-[2-(1-methyl-1H-pyrazol-5-yl)-4-chlorophenyl]-trifluoromethanesulfonamide]
- C. felis Mortality (%) 8 h (8 h): 5%
- C. felis Mortality (%) 24 h (24 h): 9%

Compound: CN(N=C(c1ccccc1)c1cc(Cl)ccc1NS(=O)(=O)C(F)(F)F)c1ccccc1 (single isomer, unassigned) [Compound 117]
- C. felis Mortality (%) 8 h (8 h, data from laboratory 1): 12%
- C. felis Mortality (%) 24 h (24 h, data from laboratory 1): 59%

Compound: CN(N=C(c1ccccc1)c1cc(Cl)ccc1NS(=O)(=O)C(F)(F)F)c1ccccc1 (single isomer, unassigned) [Compound 118]
- C. felis Mortality (%) 8 h (8 h, data from laboratory 1): 6%
- C. felis Mortality (%) 24 h (24 h, data from laboratory 1): 27%

Compound: CC(=NNc1ccccc1)c1cc(Cl)ccc1NS(=O)(=O)C(F)(F)F [Compound 12, N-[2-(1-phenylhydrazono)ethyl-4-chlorophenyl]-trifluoromethanesulfonamide]
- C. felis Mortality (%) 8 h: 20^B %

Compound: CC(=NN(C)c1ccc(Cl)cc1Cl)c1cc(Cl)ccc1N(C)S(=O)(=O)C(F)(F)F [Compound 29]
- C. felis Mortality (%) 24 h (24 h, data from laboratory 1): 0%
- C. felis Mortality (%) 48 h (data from laboratory 1): 58%

Compound: CCCN(N=C(C)c1cc(Cl)ccc1NS(=O)(=O)C(F)(F)F)c1ccc(Cl)cc1Cl [Compound 31]
- C. felis Mortality (%) 24 h (24 h, data from laboratory 1): 85%
- C. felis Mortality (%) 48 h (data from laboratory 1): 100%

Compound: CC(=NN(c1ccc(Cl)cc1Cl)C(C)C)c1cc(Cl)ccc1NS(=O)(=O)C(F)(F)F [Compound 32]
- C. felis Mortality (%) 24 h (24 h, data from laboratory 1): 41%
- C. felis Mortality (%) 48 h (data from laboratory 1): 100%

Compound: CC(=NN(C)c1ccccc1Cl)c1cc(Cl)ccc1N(C)S(=O)(=O)C(F)(F)F [Compound 40]
- C. felis Mortality (%) 24 h (24 h, data from laboratory 1): 0%
- C. felis Mortality (%) 48 h (data from laboratory 1): 13%

Compound: CCCN(N=C(C)c1cc(Cl)ccc1NS(=O)(=O)C(F)(F)F)c1ccccc1Cl [Compound 42]
- C. felis Mortality (%) 24 h (24 h, data from laboratory 1): 67%
- C. felis Mortality (%) 48 h (data from laboratory 1): 100%

Compound: CCCN(N=C(C)c1cc(Cl)ccc1NS(=O)(=O)C(F)(F)F)c1ccccc1F [Compound 45]
- C. felis Mortality (%) 24 h (24 h, data from laboratory 1): 27%
- C. felis Mortality (%) 48 h (data from laboratory 1): 100%

Compound: CC(=NN(c1ccccc1F)C(C)C)c1cc(Cl)ccc1NS(=O)(=O)C(F)(F)F [Compound 46]
- C. felis Mortality (%) 8 h (8 h, data from laboratory 1): 44%
- C. felis Mortality (%) 24 h (24 h, data from laboratory 1): 100%

Compound: CC(=NN(c1ccc(Br)cc1)C(C)C)c1cc(Cl)ccc1NS(=O)(=O)C(F)(F)F [Compound 52]
- C. felis Mortality (%) 8 h (8 h, data from laboratory 1): 51%
- C. felis Mortality (%) 24 h (24 h, data from laboratory 1): 100%

Compound: CC(=NNC(=O)c1ccc(Cl)cc1)c1cc(Cl)ccc1NS(=O)(=O)C(F)(F)F [Compound 57, N-[2-[1-(4-chlorobenzoyl)hydrazono]ethyl-4-chlorophenyl]-trifluoromethanesulfonamide]
- C. felis Mortality (%) 8 h: 6%
- C. felis Mortality (%) 24 h: 70%

Compound: CC(=NNC(=O)c1ccccc1Cl)c1cc(Cl)ccc1NS(=O)(=O)C(F)(F)F [Compound 58]
- C. felis Mortality (%) 8 h (8 h, data from laboratory 1): 2%
- C. felis Mortality (%) 24 h (24 h, data from laboratory 1): 13%

Compound: CC(=NNC(=O)c1ccc(Cl)cc1Cl)c1cc(Cl)ccc1NS(=O)(=O)C(F)(F)F [Compound 61]
- C. felis Mortality (%) 8 h (8 h, data from laboratory 1): 12%
- C. felis Mortality (%) 24 h (24 h, data from laboratory 1): 45%

Compound: CC(=NN(C)c1ccc(F)cc1)c1cc(Cl)ccc1NS(=O)(=O)C(F)(F)F [Compound 64]
- C. felis Mortality (%) 8 h (8 h, data from laboratory 1): 1%
- C. felis Mortality (%) 24 h (24 h, data from laboratory 1): 50%

Compound: CC(=NN(c1cc(Cl)cc(Cl)c1)C(C)C)c1cc(Cl)ccc1NS(=O)(=O)C(F)(F)F [Compound 67]
- C. felis Mortality (%) 8 h (8 h, data from laboratory 1): 20%
- C. felis Mortality (%) 24 h (24 h, data from laboratory 1): 85%

Compound: CC(=NN(c1ccc(Cl)c(Cl)c1)C(C)C)c1cc(Cl)ccc1NS(=O)(=O)C(F)(F)F [Compound 68]
- C. felis Mortality (%) 8 h (8 h, data from laboratory 1): 18%
- C. felis Mortality (%) 24 h (24 h, data from laboratory 1): 73%

Compound: CCN(N=C(C)c1cc(Cl)ccc1NS(=O)(=O)C(F)(F)F)c1cccc(Cl)c1Cl [Compound 69]
- C. felis Mortality (%) 8 h (8 h, data from laboratory 1): 39%
- C. felis Mortality (%) 24 h (24 h, data from laboratory 1): 92%

Compound: COC(=O)NN=C(C)c1cc(Cl)ccc1NS(=O)(=O)C(F)(F)F [Compound 78, N-[2-[1-(methoxycarbonylhydrazono)ethyl]-4-chlorophenyl]-trifluoromethanesulfonamide]
- C. felis Mortality (%) 8 h (8 h): 16%
- C. felis Mortality (%) 24 h (24 h): 16%

Compound: CCC(=NNC(=O)c1ccc(Cl)cc1Cl)c1cc(Cl)ccc1NS(=O)(=O)C(F)(F)F [Compound 79]
- C. felis Mortality (%) 8 h (8 h, data from laboratory 1): 14%
- C. felis Mortality (%) 24 h (24 h, data from laboratory 1): 92%

Compound: CCC(=NNC(=O)c1ccccc1Cl)c1cc(Cl)ccc1NS(=O)(=O)C(F)(F)F [Compound 80]
- C. felis Mortality (%) 8 h (8 h, data from laboratory 1): 17%
- C. felis Mortality (%) 24 h (24 h, data from laboratory 1): 88%

Compound: O=S(=O)(Nc1ccc(Cl)cc1C(=NN1CCCCC1)c1ccccc1)C(F)(F)F [Compound 83]
- C. felis Mortality (%) 8 h (8 h, data from laboratory 1): 15%
- C. felis Mortality (%) 24 h (24 h, data from laboratory 1): 17%

Compound: O=S(=O)(Nc1ccc(Cl)cc1C(=NN1CCOCC1)c1ccccc1)C(F)(F)F [Compound 84]
- C. felis Mortality (%) 8 h (8 h, data from laboratory 1): 9%
- C. felis Mortality (%) 24 h (24 h, data from laboratory 1): 76%

Compound: CCOC(=O)NN=C(C)c1cc(Cl)ccc1NS(=O)(=O)C(F)(F)F [Compound 85]
- C. felis Mortality (%) 8 h (8 h, data from laboratory 1): 3%
- C. felis Mortality (%) 24 h (24 h, data from laboratory 1): 12%

Compound: CC(=NNC(=O)OC(C)(C)C)c1cc(Cl)ccc1NS(=O)(=O)C(F)(F)F [Compound 86]
- C. felis Mortality (%) 8 h (8 h, data from laboratory 1): 4%
- C. felis Mortality (%) 24 h (24 h, data from laboratory 1): 26%

Compound: CCC(=NNC(=O)OC)c1cc(Cl)ccc1NS(=O)(=O)C(F)(F)F [Compound 87]
- C. felis Mortality (%) 8 h (8 h, data from laboratory 1): 7%
- C. felis Mortality (%) 24 h (24 h, data from laboratory 1): 12%

Compound: CCOC(=O)NN=C(CC)c1cc(Cl)ccc1NS(=O)(=O)C(F)(F)F [Compound 88]
- C. felis Mortality (%) 8 h (8 h, data from laboratory 1): 6%
- C. felis Mortality (%) 24 h (24 h, data from laboratory 1): 25%

Compound: CCC(=NNC(=O)OC(C)(C)C)c1cc(Cl)ccc1NS(=O)(=O)C(F)(F)F [Compound 89]
- C. felis Mortality (%) 8 h (8 h, data from laboratory 1): 6%
- C. felis Mortality (%) 24 h (24 h, data from laboratory 1): 43%

Compound: CC(=NNC(=O)Nc1ccccc1)c1cc(Cl)ccc1NS(=O)(=O)C(F)(F)F [Compound 90, N-[2-[1-(4-phenyl)semicarbazono]ethyl-4-chlorophenyl]-trifluoromethanesulfonamide]
- C. felis Mortality (%) 8 h: 3%
- C. felis Mortality (%) 24 h: 18%

Compound: CC(=NNC(=O)Nc1ccccc1Cl)c1cc(Cl)ccc1NS(=O)(=O)C(F)(F)F [Compound 91]
- C. felis Mortality (%) 8 h (8 h, data from laboratory 1): 10%
- C. felis Mortality (%) 24 h (24 h, data from laboratory 1): 10%

Compound: CC(=NNC(=O)Nc1ccc(Cl)cc1)c1cc(Cl)ccc1NS(=O)(=O)C(F)(F)F [Compound 92]
- C. felis Mortality (%) 8 h (8 h, data from laboratory 1): 8%
- C. felis Mortality (%) 24 h (24 h, data from laboratory 1): 8%

Compound: O=S(=O)(Nc1ccc(Cl)cc1-c1ccn(-c2ccccc2)n1)C(F)(F)F [Compound 94]
- C. felis Mortality (%) 8 h (8 h, data from laboratory 1): 6%
- C. felis Mortality (%) 24 h (24 h, data from laboratory 1): 8%

Compound: O=S(=O)(Nc1ccc(Cl)cc1-c1cc[nH]n1)C(F)(F)F [Compound 95]
- C. felis Mortality (%) 8 h (8 h, data from laboratory 1): 25%
- C. felis Mortality (%) 24 h (24 h, data from laboratory 1): 83%

Compound: CCN(N=C(C)c1cc(Cl)ccc1NS(=O)(=O)C(F)(F)F)c1ccc(C)cc1 [Compound 101]
- C. felis Mortality (%) 8 h (8 h, data from laboratory 1): 11%
- C. felis Mortality (%) 24 h (24 h, data from laboratory 1): 90%

Compound: CC(=NN(c1ccc(C)cc1)C(C)C)c1cc(Cl)ccc1NS(=O)(=O)C(F)(F)F [Compound 102]
- C. felis Mortality (%) 8 h (8 h, data from laboratory 1): 3%
- C. felis Mortality (%) 24 h (24 h, data from laboratory 1): 90%

Compound: CCCN(N=C(C)c1cc(Cl)ccc1NS(=O)(=O)C(F)(F)F)c1cccc(Cl)c1 [Compound 106]
- C. felis Mortality (%) 8 h (8 h, data from laboratory 1): 0%
- C. felis Mortality (%) 24 h (24 h, data from laboratory 1): 25%

Compound: CC(=NN1CCCCCC1)c1cc(Cl)ccc1NS(=O)(=O)C(F)(F)F [Compound 107]
- C. felis Mortality (%) 8 h (8 h, data from laboratory 1): 2%
- C. felis Mortality (%) 24 h (24 h, data from laboratory 1): 23%

Compound: O=S(=O)(Nc1ccc(Cl)cc1-c1ccnn1-c1ccc(Cl)cc1)C(F)(F)F [Compound 108, N-[2-(1-4′-chlorophenyl-1H-pyrazol-5-yl)-4-chlorophenyl]-trifluoromethanesulfonamide]
- C. felis Mortality (%) 8 h: 0%
- C. felis Mortality (%) 24 h: 64%

Compound: COCN(c1ccc(Cl)cc1C(C)=NN(C)c1ccccc1)S(=O)(=O)C(F)(F)F [Compound 110]
- C. felis Mortality (%) 8 h (8 h, data from laboratory 1): 6%
- C. felis Mortality (%) 24 h (24 h, data from laboratory 1): 52%
